According to patent US12577235B2, “Crystalline form of CXCR2 antagonist and application thereof” (Shenzhen Optimum Biological Technology Co., Ltd, priority 2019, dated 2026):

Legend:
[1] = Crystalline form stability assay of crystalline form A - solvent water activity; format: physicochemical; details: for Crystalline form (XRPD): 20° C., 4 days
Protocol: The solutions were centrifuged to give precipitates, and the precipitates were dried under vacuum at 50° C. and subjected to XRPD.

[2] = tested on: rat COPD model induced by smoking combined with lipopolysaccharide; test: Anti-inflammation effect in rat COPD model induced by smoking combined with lipopolysaccharide; format: in vivo, SD rats
Protocol: Modeling: the animal model was prepared by exposing the rats to cigarette smoke once daily for 14 days. The rats were smoked for 90 min per day in 2 portions with a break of 10 min. 18 Marlboro cigarettes (with a tar content of 11 mg) were given each time. LPS was administered dropwise via airway at 200 μg/rat once weekly. The administration dropwise was performed on days 6 and 13 of smoke exposure (on the day of LPS administration dropwise, only LPS was administered dropwise for modeling without smoke exposure). • 2. Administration: an aqueous solution of 1% DMSO/20% PEG400/79% (HP-b-CD) was used as the vehicle, and the drugs were administrated intragastrically everyday at a volume of 5 mL/kg for 2 weeks. • 3. Endpoint: On day 15, pulmonary function test, sample collection, inflammatory cell count in bronchoalveolar lavage fluid, pathological analysis, and lung tissue MPO and MMP9 assay were carried out. Procedures of Pulmonary Function Test:
After the last smoking and modeling were finished, pulmonary function was tested for each group of animals on the second day, and pulmonary resistance and compliance were detected under stimulation of methacholine chloride at different doses. The animals were anesthetized by intraperitoneal injection with […] of 25% urethane. After the animals were deeply anesthetized, airway intubation was performed by separating airways, and meanwhile, jugular veins were separated. After breathing stably, the animals were put into a plethysmograph. Drug administration pipelines were inserted into the separated jugular veins. After the animals were in rest state for 1-2 min and the breathing curves were stable, then detection was started. Rats were administered with methacholine chloride at doses of 0, 0.0083, 0.025, 0.075, 0.225, 0.675 mg/kg by jugular vein intubation. The increase in airway resistance and decrease in pulmonary compliance were observed after each administration. After 1-2 min, the parameters returned to near the baseline of the previous concentration of methacholine chloride, and methacholine chloride of the next concentration was injected. After the detection was finished, subsequent alveolar lavage and sample collection were performed.
After the pulmonary function test was finished, the rats were sacrificed by cervical dislocation. After the animals were confirmed dead, the lungs were carefully separated, a lavage syringe was inserted into the main trachea and fixed with 2-0 silk thread. The right lung was ligated. 5 mL of low-temperature normal saline was slowly injected through the lavage syringe. The normal saline was slowly extracted after confirming that the normal saline was injected into the left lung. The operation was repeated twice. By the three lavages, a total of 15 mL of normal saline was injected for lavage. The obtained BALF was injected into a 15 mL centrifuge tube and preserved in a storage box at 4° C. for subsequent BALF cells counting.
After BALF was collected, the right lung which was not infused was taken off and weighted. The two upper lobes of the right lung were put into a cryopreservation tube, frozen in a freezer at −80° C. for later use. Lower lobe tissues were fixed in formalin.
1 mL of homogenously mixed BALF was added into 1 mL of a solution of 1% glacial acetic acid in normal saline. Cells were counted using a hemocytometer. The remaining lavage fluid was centrifuged at 1500 r/min for 10 min at 4° C. to give a cell mass. The cells were resuspended in 200 μL of normal saline, uniformly coated on a glass slide and stained by Wright-Giemsa stain. Macrophages, neutrophils and lymphocytes in a total of 200 cells were counted under a microscope, and the proportions of the cells was calculated. For lavage fluid collection, animals failing the lavage fluid collection were not summarized. […]

CXCR2 = biological target: T1, CXCR2 (Homo sapiens, UniProt P25025); test: PathHunter CXCR2 β-arrestin cell assay (CXCL8 agonist, chemiluminescence); format: cell-based; details: listed as crystalline form A of the compound 1
T1 sequence (P25025 1-360): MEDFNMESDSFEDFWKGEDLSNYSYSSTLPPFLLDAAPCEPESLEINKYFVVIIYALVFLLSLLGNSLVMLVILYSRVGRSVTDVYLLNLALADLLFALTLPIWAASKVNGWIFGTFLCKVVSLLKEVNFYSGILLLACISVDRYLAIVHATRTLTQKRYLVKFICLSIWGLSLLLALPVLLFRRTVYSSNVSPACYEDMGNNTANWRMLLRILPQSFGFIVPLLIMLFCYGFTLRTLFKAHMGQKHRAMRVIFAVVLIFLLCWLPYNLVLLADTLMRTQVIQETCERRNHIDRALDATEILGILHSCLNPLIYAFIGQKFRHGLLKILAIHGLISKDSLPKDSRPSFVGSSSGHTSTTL
Protocol: CXCR2 β-arrestin cells (DiscoverX) of PathHunter® were cultured in standard conditions and inoculated at 20 μL/well to a 384-well white microplate. Before testing, the cells were incubated at 37° C. for an appropriate period of time. The test compound was serially 3-fold diluted in DMSO to give 8 concentrations. Shortly before testing, the serially diluted test samples were further diluted with test buffer to 5 folds of the test concentration. 5 μL of further diluted test samples were added to the cells and the cells were incubated at 37° C. for 30 min. The concentration of vehicle was 1%. 5 μL of 6×EC80 agonist (CXCL8) buffer was then added to the cells, and the cells were incubated at 37° C. for 90 min. The test signal was generated by adding 15 μL (50% v/v) of PathHunter detection mixture reagent in one portion and subsequently incubating the cells for 1 h. The chemiluminescence signal of the microplate was read by a PerkinElmer Envision™ instrument. The biological activities of the test compounds were analyzed by CBIS data analysis kit (ChemInnovation, CA), shown as IC50 values.

[3] = 10 mg/kg vs Danirixin at 30 mg/kg
[4] = 10 mg/kg, methacholine 0.025 mg/kg
[5] = 30 mg/kg vs Danirixin at 30 mg/kg
[6] = at various doses (3, 10, 30 mpk)

## O=C(Nc1ccc(Cl)c(S(=O)(=O)[C@H]2CCCNC2)c1O)N[C@@H]1CCCc2cc(C(F)(F)F)oc21 [crystalline form A]
[1]; methanol, ethanol, methanol/water, water
  Stability of the crystalline form in solvents (in words): stable in the above solvents
[1]; stirred in ethanol, 100 mg/mL
  Crystalline form (XRPD): Crystalline form A
[1]; stirred in methanol, 100 mg/mL
  Crystalline form (XRPD): Crystalline form A
[1]; stirred in methanol/water = 1/1.5, 100 mg/mL
  Crystalline form (XRPD): Crystalline form A
[1]; stirred in water, 100 mg/mL
  Crystalline form (XRPD): Crystalline form A
[2]; 3 mg/kg
  Pulmonary function improvement and anti-inflammatory effects (summary): significant pulmonary function improvement and anti-inflammatory effects
[2]; 3 mg/kg and 10 mg/kg vs Danirixin at 30 mg/kg
  Pulmonary resistance, effect relative to Danirixin: comparable to that of Danirixin
[2]; 3 mg/kg vs Danirixin at 30 mg/kg
  MPO content in lung tissues, effect relative to Danirixin: comparable effect
[2]; 3 mg/kg, methacholine 0.025 mg/kg
  Pulmonary resistance, methacholine-induced pulmonary function test: significant effects in improving the pulmonary resistance
[2]; [3]
  Lung tissue pathology score, effect relative to Danirixin: comparable of that of Danirixin
  MMP9 content in lung tissue, effect relative to Danirixin: comparable of that of Danirixin
  Number of leukocytes in BALF, effect relative to Danirixin: comparable effect
  Number of neutrophils in BALF, effect relative to Danirixin: comparable effect
  Pulmonary compliance, effect relative to Danirixin: comparable to that of Danirixin
[2]; [4]
  Pulmonary compliance, methacholine-induced pulmonary function test: significant effect in improving the pulmonary compliance
  Pulmonary resistance, methacholine-induced pulmonary function test: significant effects in improving the pulmonary resistance
[2]; [5]
  Lung tissue pathology score, effect relative to Danirixin: superior effect
  MMP9 content in lung tissue, effect relative to Danirixin: superior effect
[2]; 3, 10, 30 mpk
  Lung tissue pathology score, dose dependence: improved the pathology score in a dose-dependent manner
  MMP9 content in lung tissue, dose dependence: reduced the MMP9 content in lung tissue in a dose-dependent manner
  Number of neutrophils in BALF, dose dependence: reduced the number of neutrophils in a dose-dependent manner
[2]; Danirixin 30 mpk, crystalline form A 3-30 mpk
  Anti-inflammatory effect (summary): significant anti-inflammatory effect
[2]; at a lower dose than Danirixin
  Pharmacodynamic effect compared with Danirixin: equivalent pharmacodynamic effect
[2]; at the same dose as Danirixin
  Pharmacodynamic effect compared with Danirixin: superior pharmacodynamic effect
[2]; [6]
  MPO content in lung tissues: significantly reduce the MPO content
  Number of leukocytes in BALF: significantly reduce the number of leukocytes
[2]; down to 3 mg/kg
  Number of neutrophils in BALF: significant effect
[2]; down to 10 mg/kg
  Lung tissue pathology score: significant effect
  MMP9 content in lung tissue: significant effect
CXCR2
  Antagonism against the CXCR2 receptor (in words): significant inhibitory effect
